US20180111913A1, “SUBSTITUTED BENZOFURAN DERIVATIVES AS NOVEL ANTIMYCOBACTERIAL AGENTS” (priority 2015, published 2018)
≈ marks a conversion by molar mass, not a printed value. Read-outs that look alike come from different tables or passages of the source.

Legend:
[1] = tested on: Mtb strain mc^27000; assay: microbe, parasite or virus in culture; format: cell-based, Mycobacterium tuberculosis; settings: for MIC: Mtb mc^27000, liquid medium, 96-well plates, read-out: MIC
[2] = biological target: Mtb Pks13-TE domain (wild-type) (Mycobacterium tuberculosis, UniProt I6X8D2); assay: biochemical; format: biochemical; settings: Pks13-TE
Chain of Mtb Pks13-TE domain (wild-type) (I6X8D2 1451-1733): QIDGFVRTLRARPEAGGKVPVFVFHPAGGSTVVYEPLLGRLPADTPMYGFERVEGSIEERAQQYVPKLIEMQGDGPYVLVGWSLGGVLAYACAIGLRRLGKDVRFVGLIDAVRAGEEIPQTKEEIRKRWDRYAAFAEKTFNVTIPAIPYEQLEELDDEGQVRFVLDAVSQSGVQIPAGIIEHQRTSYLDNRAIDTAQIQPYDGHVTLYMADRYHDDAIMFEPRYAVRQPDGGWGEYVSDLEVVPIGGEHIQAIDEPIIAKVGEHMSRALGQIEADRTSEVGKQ

[3] = Mycobacterium tuberculosis, read-out: percentage inhibition observed (incomplete inhibition)

Structure (SMILES)	MIC ([1]; Mycobacterium tuberculosis) [µM]	IC50 ([2]; 20 μM 4-MUH, read-out: IC50) [µM]	MIC [1] [µM]	also measured
CCOC(=O)/C=C/CC1CCN(CCCc2c(O)ccc3oc(-c4ccccc4)c(C(=O)OCC)c23)C1 (centres unmarked) [compound 171]	2.7 (≈ 1.37 µg/mL)	0.5	–	–
CNC(=O)c1c(-c2cccc(O)c2)oc2cc(O)cc(CN3CCCCC3)c12 [compound 89]	1.2 (≈ 0.457 µg/mL)	9	–	–
CNC(=O)c1c(-c2ccc(O)cc2)oc2ccc(O)c(CN3CCC(C(N)=O)CC3)c12 [compound 123]	> 40	1.6	–	–
CNC(=O)c1c(-c2ccccc2)oc2cc(OCCN)cc(CN3CCCCC3)c12 [compound 91]	–	10	–	inhibition at 40 µM ([1]; Mycobacterium tuberculosis, at 40 μM, read-out: percentage inhibition observed (incomplete inhibition)): 34%
CCOC(=O)c1c(-c2ccccc2)oc2ccc(O)c(CCCN3CCC(CO)CC3)c12 [compound 166]	6.1 (≈ 2.67 µg/mL)	0.5	–	–
CCOC(=O)c1c(-c2ccccc2)oc2ccc(O)c(CCCN3CCSC3C)c12 (centres unmarked) [compound 174]	4.7 (≈ 2 µg/mL)	1.25	–	–
COC(=O)n1c(-c2ccccc2)c(Br)c2cccc(CN3CCCCC3)c21 [compound 108]	–	2	–	inhibition at 20 µM [1, 3]: 26%
CCOC(=O)c1c(-c2cccc(OC)c2)oc2ccc(O)c(CN3CCCCC3)c12 [compound 48]	1.3 (≈ 0.532 µg/mL)	0.36	–	–
CC(C)(C)OC(=O)NC1CCN(C(=O)c2c(-c3ccccc3)oc3ccc(O)c(CN4CCCCC4)c23)CC1 [compound 53]	–	0.63	6.6 (≈ 3.52 µg/mL)	–
CCOC(=O)c1c(-c2ccccc2)oc2ccc(O)c(CCN[C@@H](Cc3c[nH]cn3)C(=O)O)c12 [compound 245]	> 40	2.7	–	–
OCc1c(-c2ccccc2)oc2ccc(O)c(CN3CCC(N4CCCCC4)CC3)c12 [compound 99]	–	–	–	inhibition at 20 µM [1, 3]: 28%; IC50 ([2]; read-out: IC50 (μM), given as NB / NI): > 20 µM
CNC(=O)c1c(-c2cccc(OC)c2)oc2ccc(O)c(CN3CCCCC3)c12 [compound 56]	–	0.4	9.0 (≈ 3.55 µg/mL)	–
NC(=O)c1c(-c2ccc(O)cc2)oc2ccc(O)c(CN3CCCCC3)c12 [compound 125]	1.3 (≈ 0.476 µg/mL)	0.17	–	–
CCOC(=O)c1c(-c2ccc(F)cc2)oc2ccc(O)c(CN3CCCCC3)c12 [compound 25]	–	0.35	1.5 (≈ 0.596 µg/mL)	–
CNC(=O)c1c(-c2ccc(O)cc2)oc2ccc(O)c(CN3CCC(C#N)CC3)c12 [compound 124]	20 (≈ 8.11 µg/mL)	0.25	–	–
CCOC(=O)c1c(-c2ccccc2)oc2ccc(O)c(CCCN3CC[C@@H](O)C3)c12 [compound 175]	6.1 (≈ 2.5 µg/mL)	0.95	–	–
CCOC(=O)c1c(-c2ccc(F)cc2)oc2cc(O)cc(CN3CCCCC3)c12 [compound 51]	–	0.8	>30	–
CCOC(=O)c1c(-c2ccccc2)oc2ccc(O)c(CCCN3CC[C@H]3CO)c12 [compound 213]	–	2.3	0.97 (≈ 0.397 µg/mL)	–
CNC(=O)c1c(-c2ccccc2)oc2ccc(O)c(CCNC3CCCC3)c12 [compound 141]	–	1.4	10.0 (≈ 3.78 µg/mL)	–
CNC(=O)c1c(-c2ccccc2)oc2ccc(O)c(CN3CCCC(CO)C3)c12 (centres unmarked) [compound 135]	0.5 (≈ 0.197 µg/mL)	2	–	–
CCOC(=O)c1c(-c2ccccc2)oc2ccc(O)c(CN3CCC(O)CC3)c12 [compound 117]	5.6 (≈ 2.21 µg/mL)	0.18	–	–
CCOC(=O)c1c(-c2ccccc2)oc2ccc(O)c(CCN3CCCC(O)C3)c12 (centres unmarked) [compound 151]	–	10	>20	–
Oc1ccc2nc(-c3ccccc3)[nH]c2c1CN1CCCC1 [compound 110]	22 (≈ 6.45 µg/mL)	6.8	–	–
CCOC(=O)c1c(-c2ccccc2)oc2ccc(O)c(CCCN3CC[C@H](O)C3)c12 [compound 186]	10 (≈ 4.09 µg/mL)	0.62	–	–
CCOC(=O)c1c(-c2ccccc2)oc2cc(O)cc(CCN)c12 [compound 136]	–	> 20	4 (≈ 1.3 µg/mL)	–
